Patent US6399615B1, “Farnesyl protein transferase inhibitors” (Schering Corporation, priority 1997, dated 2002)

Assays:
COS Cell = COS Cell IC50 (Cell-Based Assay); conditions: COS cells
Method: (§1) FPT IC50 (inhibition of farnesyl protein transferase, in vitro enzyme assay) and COS Cell IC50 (Cell-Based Assay) were determined following the assay procedures described in WO 95/10516, published Apr. 20, 1995. GGPT IC50 (inhibition of geranylgeranyl protein transferase, in vitro enzyme assay), Cell Mat Assay, and anti-tumor activity (in vivo anti-tumor studies) could be determined by the assay procedures described in WO 95/10516. The disclosure of WO 95/10516 is incorporated herein by reference thereto.

[1] = target: farnesyl protein transferase (Homo sapiens, UniProt P49354+P49356); assay: FPT IC50 (inhibition of farnesyl protein transferase, in vitro enzyme assay); assay type: biochemical
Method: as §1

Human tumor cells = assay: Soft Agar Assay (anchorage-independent growth); assay type: cell-based; conditions: colony growth in soft agar
Method: Anchorage-independent growth is a characteristic of tumorigenic cell lines. Human tumor cells are suspended in growth medium containing 0.3% agarose and an indicated concentration of a farnesyl transferase inhibitor. The solution is overlayed onto growth medium solidified with 0.6% agarose containing the same concentration of farnesyl transferase inhibitor as the top layer. After the top layer is solidified, plates are incubated for 10-16 days at 37° C. under 5% CO2 to allow colony outgrowth. After incubation, the colonies are stained by overlaying the agar with a solution of MTT (3-[4,5-dimethyl-thiazol-2-yl]-2,5-diphenyltetrazolium bromide, Thiazolyl blue) (1 mg/mL in PBS). Colonies can be counted and the IC50's can be determined.

Compound	IC50 [1] [nM]	melting point	IC50 (COS Cell) [nM]	IC50 (Human tumor cells) [nM]
COC(=O)[C@H]1C[C@@H]1C(=O)N1CCC([C@H]2c3ncc(Br)cc3CCc3cc(Cl)cc(Br)c32)CC1 [30 (compound 55.1)]	25	–	–	–
O=C(O)[C@H]1CC[C@H](C(=O)N2CCC([C@H]3c4ncc(Br)cc4CCc4cc(Cl)cc(Br)c43)CC2)CC1 [Example 5]	46	138 to 140 °C	–	–
CC(C)(C)OC(=O)C[C@H]1CC[C@H](C(=O)N2CCC([C@H]3c4ncc(Br)cc4CCc4cc(Cl)cc(Br)c43)CC2)CC1 [Example 10]	91	98 to 102 °C	–	–
O=C(Cc1ccccc1C(=O)N1CCC([C@H]2c3ncc(Br)cc3CCc3cc(Cl)cc(Br)c32)CC1)N1CCOCC1 [Example 11]	250	127 to 128 °C	–	–
O=C(O)C1CCC(CC(=O)N2CCC([C@H]3c4ncc(Br)cc4CCc4cc(Cl)cc(Br)c43)CC2)CC1 (stereo partly drawn) [Example 12]	1.9	–	10	> 500
O=C(O)CC1CCC(CC(=O)N2CCC([C@H]3c4ncc(Br)cc4CCc4cc(Cl)cc(Br)c43)CC2)CC1 (stereo partly drawn) [Example 13]	1.5	–	10	> 500
O=C(O)C=C1CCC(=CC(=O)N2CCC([C@H]3c4ncc(Br)cc4CCc4cc(Cl)cc(Br)c43)CC2)CC1 [Example 14]	5.2	161 to 169 °C	55	–
NC(=O)Cc1ccc(CC(=O)N2CCC([C@H]3c4ncc(Br)cc4CCc4cc(Cl)cc(Br)c43)CC2)cc1 [Example 15]	3.6	–	100	> 500
COC(=O)CNC(=O)Cc1cccc(CC(=O)N2CCC([C@H]3c4ncc(Br)cc4CCc4cc(Cl)cc(Br)c43)CC2)c1 [Example 17]	9.5	86 to 90 °C	410	–
COC(=O)CNC(=O)Cc1ccc(CC(=O)N2CCC([C@H]3c4ncc(Br)cc4CCc4cc(Cl)cc(Br)c43)CC2)cc1 [Example 18]	5.3	94 to 97 °C	450	–
NC(=O)CC1CCC(CC(=O)N2CCC(C3c4ncc(Br)cc4CCc4cc(Cl)cc(Br)c43)CC2)CC1 (stereo not drawn) [Example 22]	6.3	103 to 110 °C	22	–
NC(=O)C1CCC(CC(=O)N2CCC(C3c4ncc(Br)cc4CCc4cc(Cl)cc(Br)c43)CC2)CC1 (stereo not drawn) [Example 23]	4.6	145 to 152 °C	18	–
NC(=O)[C@@H]1C[C@H]1C(=O)N1CCC([C@H]2c3ncc(Br)cc3CCc3cc(Cl)cc(Br)c32)CC1 [Example 29 (compound 54.0)]	8.3	–	–	–
COC(=O)[C@@H]1C[C@H]1C(=O)N1CCC([C@H]2c3ncc(Br)cc3CCc3cc(Cl)cc(Br)c32)CC1 [Example 29 (compound 54.1)]	34	–	–	–
COC(=O)Cc1ccc(CC(=O)N2CCC([C@H]3c4ncc(Br)cc4CCc4cc(Cl)cc(Br)c43)CC2)cc1 [Example 34]	8.6	81 to 86 °C	180	–
O=C(O)C[C@H]1CC[C@@H](C(=O)N2CCC([C@H]3c4ncc(Br)cc4CCc4cc(Cl)cc(Br)c43)CC2)CC1 [Example 35]	3.3	–	70	–
O=C(O)C[C@H]1CC[C@H](C(=O)N2CCC([C@H]3c4ncc(Br)cc4CCc4cc(Cl)cc(Br)c43)CC2)CC1 [Example 36]	10.2	–	500	–

Now from value to compound, other results behind:

IC50 [1] [nM]	melting point	Compound	IC50 (COS Cell) [nM]	IC50 (Human tumor cells) [nM]
6.2	–	NC(=O)[C@H]1C[C@@H]1C(=O)N1CCC([C@H]2c3ncc(Br)cc3CCc3cc(Cl)cc(Br)c32)CC1 [30 (compound 55.0)]	50	–
66	229 °C (dec.)	O=C(O)c1ccccc1CC(=O)N1CCC([C@H]2c3ncc(Br)cc3CCc3cc(Cl)cc(Br)c32)CC1 [Example 1]	–	–
1.6	186 to 189 °C	O=C(O)Cc1ccc(CC(=O)N2CCC([C@H]3c4ncc(Br)cc4CCc4cc(Cl)cc(Br)c43)CC2)cc1 [Example 3]	380	–
4.1	205 °C (dec.)	O=C(O)Cc1cccc(CC(=O)N2CCC([C@H]3c4ncc(Br)cc4CCc4cc(Cl)cc(Br)c43)CC2)c1 [Example 4]	400	–
19	86 to 90 °C	CC(C)(C)OC(=O)CC1CCC(CC(=O)N2CCC([C@H]3c4ncc(Br)cc4CCc4cc(Cl)cc(Br)c43)CC2)CC1 (stereo partly drawn) [Example 6]	–	–
110	113 to 117 °C	CC(C)(C)OC(=O)C=C1CCC(=CC(=O)N2CCC([C@H]3c4ncc(Br)cc4CCc4cc(Cl)cc(Br)c43)CC2)CC1 [Example 7]	–	–
44	98 to 102 °C	CC(C)(C)OC(=O)C[C@H]1CC[C@@H](C(=O)N2CCC([C@H]3c4ncc(Br)cc4CCc4cc(Cl)cc(Br)c43)CC2)CC1 [Example 9]	–	–
6.3	119 to 125 °C	NC(=O)Cc1cccc(CC(=O)N2CCC([C@H]3c4ncc(Br)cc4CCc4cc(Cl)cc(Br)c43)CC2)c1 [Example 16]	375	–
4.7	116 to 123 °C	CONC(=O)Cc1ccc(CC(=O)N2CCC([C@H]3c4ncc(Br)cc4CCc4cc(Cl)cc(Br)c43)CC2)cc1 [Example 19]	90	–
> 140	94 to 100 °C	O=C(Cc1ccc(CC(=O)N2CCC([C@H]3c4ncc(Br)cc4CCc4cc(Cl)cc(Br)c43)CC2)cc1)NCCO [Example 20]	–	–
47	134 to 138 °C	O=C(NCc1ccncc1)c1ccccc1CC(=O)N1CCC([C@H]2c3ncc(Br)cc3CCc3cc(Cl)cc(Br)c32)CC1 [Example 24]	–	–
36	116 to 118 °C	COC(=O)CNC(=O)c1ccccc1CC(=O)N1CCC([C@H]2c3ncc(Br)cc3CCc3cc(Cl)cc(Br)c32)CC1 [Example 25]	–	–
56	136 to 138 °C	O=C(Cc1ccccc1C(=O)N1CCOCC1)N1CCC([C@H]2c3ncc(Br)cc3CCc3cc(Cl)cc(Br)c32)CC1 [Example 26]	–	–
53	156 to 157 °C	O=C(NO)c1ccccc1CC(=O)N1CCC([C@H]2c3ncc(Br)cc3CCc3cc(Cl)cc(Br)c32)CC1 [Example 27]	–	–
